Assay results taken from patent US10087449B2, “Pharmaceutical composition for treating chronic kidney disease” (SHIONOGI & CO., LTD., priority 2014, dated 2018).

What was measured:
NRK49F cells = assay: TGFβ stimulation of NRK49F rat kidney fibroblasts, gene expression by quantitative PCR; assay type: cell-based
Method: Effect of stimulation by TGFβ, known as a promoting factor of fibrosis (Refer to Nephrol Dial Transplant., 1998, vol. 13, p. 573-579), on gene expression of NNMT, COL1A1, COL3A1 and COL4A1 was examined using NRK49F cells that are rat kidney fibroblasts. NRK49F cells were seeded into 12 well plates at 4×10^4 cells/well/mL and culture medium was changed to serum-free medium after 72 hr. Recombinant human TGFβ1 (R & D Co., Ltd., 5 ng/mL) was added after 24 hr and the cells were cultured for 6, 24 and 48 hr. After culture, total RNA was extracted from cells and the gene expression levels of NNMT, COL1A1, COL3A1 and COL4A1 were analyzed by quantitative PCR.
(§1) The siRNA of NNMT was introduced into NRK49F cells, rat kidney fibroblast cell line, the effect of which on enhanced gene expression of COL1A1, COL3A1 and COL4A1 by TGFβ stimulation was examined (FIG. 4). After NRK49F cells were seeded into 12 well plates at 4×10^4 cells/well/mL and culture for 72 hr, culture medium was changed to antibiotic-free medium and siRNA sequence (F; […] (SEQ ID NO: 2), R; […] (SEQ ID NO: 3)) for rat NNMT purchased was introduced into cells for 24 hr by lipofection method using RNAiMAX (Invitrogen Corp.) which is an introduction reagent of siRNA. Next, culture medium was changed to serum-free medium and after 24 hr, human recombinant TGFβ (R & D Co., Ltd., 5 ng/mL) was added and cultured for 48 hr. After culture, total RNA was extracted from cells and the gene expression levels of NNMT, COL1A1, COL3A1 and COL4A1 were analyzed by quantitative PCR.

rat NNMT = assay: siRNA knock-down of NNMT gene expression in TGFβ-stimulated NRK49F cells (quantitative PCR); assay type: cell-based; conditions: TGFβ 5 ng/mL, 48 hr
Method: as §1

[1] = tested on: gene expression of COL1A1, COL3A1 and COL4A1 in NRK49F cells; assay: Effect of NNMT siRNA on collagen gene expression enhanced by TGFβ in NRK49F cells (quantitative PCR); assay type: cell-based, rat; conditions: TGFβ 5 ng/mL, 48 hr
Method: as §1

## TGFβ1: Recombinant human TGFβ1 (R & D Co., Ltd.), promoting factor of fibrosis used as stimulus
NRK49F cells; TGFβ 5 ng/mL, 48 hr
  increase in gene expression of COL1A1: 7.1 fold
  increase in gene expression of COL3A1: 6.5 fold
  increase in gene expression of COL4A1: 3.1 fold
  increase in gene expression of NNMT: about 3.6 fold
NRK49F cells; TGFβ1 5 ng/mL, 6, 24 and 48 hr
  gene expression level of COL1A1 over time: time-dependent increases
  gene expression level of COL3A1 over time: time-dependent increases
  gene expression level of NNMT over time: time-dependent increases
  gene expression of COL4A1 over time: reached the maximum level in 6 hr and left the plateau to 24 hr

## siRNA of NNMT: siRNA for rat NNMT, purchased; F CCACAUCCAAUAAUGAAGGACUCUU (SEQ ID NO: 2), R AAGAGUCCUUCAUUAUUGGAUGUGG (SEQ ID NO: 3) (listed as RNA, chemistry not given here)
Rat NNMT; siRNA 0.01 nM
  knock-down of gene expression of NNMT: 23%
Rat NNMT; siRNA 0.1 nM
  knock-down of gene expression of NNMT: 45%
Rat NNMT; siRNA 1 nM
  knock-down of gene expression of NNMT: 60%
[1]; siRNA 0.01 nM
  decrease in gene expression of COL1A1: 20%
  decrease in gene expression of COL3A1: 20%
  decrease in gene expression of COL4A1: 33%
[1]; siRNA 0.1 nM
  decrease in gene expression of COL1A1: 36%
  decrease in gene expression of COL3A1: 31%
  decrease in gene expression of COL4A1: 15%
[1]; siRNA 1 nM
  decrease in gene expression of COL1A1: 78%
  decrease in gene expression of COL3A1: 62%
  decrease in gene expression of COL4A1: 57%
